Results taken from patent US20150141349A1, “Method and Composition for Alleviating Tumor Symptoms” (Angiogene Pharmaceuticals Ltd., priority 2012, published 2015).
“And” between values parts separate entries of the source, which are not always exact repeats. Equal entries are not always repeated.

How the values were obtained:
[1] = tested on: Pancreatic Endocrine Tumors; assay: Serum insulin (ELISA) in Pdx1-Cre:Men1floxed/floxed mice treated with CA4P; type: in vivo
Experimental: Eight Pdx1-Cre:Men1floxed/floxed mice (described in Shen et al. Cancer Res. 2009, 69(5):1858-66) were divided into treated group (n=4) and control group (n=4). In an ongoing experiment, the mice from the treated group and control group were injected i.p. daily with CA4P (100 mg/kg) and saline, respectively, for three days monthly. The mice underwent a 24 h fast prior to collecting whole blood via a retro-orbital bleeding technique weekly at pre- and post-treatment. Glucose levels were monitored by enzymatic colorimetric assay. All mice underwent a microPET/CT scan monthly. Anti-tumor activity was measured by standardized-uptake value (SUV) analysis. All mice were weighed three times per week as an indicator of toxicity.

[2] = tested on: GH3 pituitary tumor cells; assay: Tumor necrosis in GH3 tumors (prolactinomas) after CA4P (H&E histology, image analysis); type: in vivo, rat
Experimental: (§1) Eighteen female Wistar Furth rats (Charles River, France), weighing approximately 130-140 g, were inoculated subcutaneously in the flanks with 1×10^6 GH3 pituitary tumor cells. Tumors were typically used for experimentation when they reached approximately 1 cm in diameter, or 300-1000 mm^3. Blood was taken from the tail vein of each rat 24 h before treatment with 100 mg/kg of vascular disrupting agent, CA4P, formulated in 20% of 5% aqueous sodium bicarbonate in 80% phosphate buffered saline. The CA4P was administered as a bolus injection through the tail vein. 24 h or 48 h after treatment a further blood sample was taken from the tail vein and the rats euthanized. Tumors were excised, fixed in formalin and stained with H&E for histology. Necrosis was determined by image analysis (Image J).

[3] = tested on: GH3 pituitary tumor cells; assay: Prolactin and growth hormone (ELISA) in GH3 tumor-bearing rats treated with CA4P; type: in vivo, rat; parameters: tumor GH pre- / tumor GH post-: unit not given beside the values; conditions: for Growth Hormone tumor-derived: historical background 46 ng/ml subtracted; for Prolactin tumor-derived: historical basal level 26 ng/ml subtracted; for GH % decrease: tumor-derived GH
Experimental: as §1
Prolactin and growth hormone were measured using commercial ELISA's (SPI/BIO Bertin Pharma/Cayman kits sourced from Bioquote Limited, York, UK). Tumor-derived prolactin levels were calculated assuming a historical basal level of 26 ng/ml. […] Tumor-derived growth hormone levels were calculated by subtracting a historical value for background growth hormone of 46 ng/ml. […] All measurements for the control group were performed 24 hours after injection of saline.

[4] = tested on: GH3 pituitary tumor cells; assay: Tumor necrosis in GH3 rat pituitary tumors after ZD6126 (H&E histology, image analysis); type: in vivo; conditions: individual rats; 24 h after 50 mg/kg ZD6126 bolus tail vein
Experimental: (§2) Four female Wistar Furth rats, weighing approximately 160 g, were inoculated subcutaneously in the flanks with GH3 pituitary tumor cells. Tumors were typically used for experimentation when they reached approximately 1000-3000 mm^3. Blood was taken from the tail vein of each rat 24 h before treatment with 50 mg/kg of vascular disrupting agent, ZD6126, formulated in 20% of 5% aqueous sodium bicarbonate in 80% phosphate buffered saline. The vascular disrupting agent was administered as a bolus injection through the tail vein. 24 h after treatment a further blood sample was taken from the tail vein and the rats euthanized. Tumors were excised, fixed in formalin and stained with H&E for histology. Necrosis was determined by image analysis (Image J). Blood samples were analyzed for prolactin and growth hormone at by ELISA using kits supplied by SPIbio.

[5] = tested on: GH3 pituitary tumor cells; assay: Circulating growth hormone and prolactin (ELISA) in GH3 tumor-bearing rats treated with ZD6126; type: in vivo, rat; parameters: Growth Hormone pre / Growth Hormone post / Prolactin pre / Prolactin post: unit not given beside the values
Experimental: as §2
Since control animals had significant levels of both hormones (within the normal range) and since the VDA could not be expected to reduce normal host hormone production it might be reasonable to subtract a figure from each reading to allow for the persisting host-derived hormone. Although data on normal hormone levels were derived from a single control (non-tumor bearing) animal, the values are very much in agreement with those reported in the literature. Subtracting this value would give a rough estimate of the reduction in rats 1 and 2 of tumor-derived growth hormone of 72% and 40% and a reduction in tumor-derived prolactin of 65% and 33% respectively.

carcinoid metastases = conditions: compared with 55% for hepatic artery embolization; cited from earlier work
neuroendocrine tumor = conditions: prolonged treatment, in combination with octreotide (Yao et al. 2008); cited from earlier work
[6] = 24 h after 100 mg/kg CA4P, individual rats
[7] = 48 h after 100 mg/kg CA4P, individual rats
[8] = 24 h after 50 mg/kg ZD6126, individual rats, ±SD
[9] = baseline, blood 24 h before ZD6126 treatment, individual rats, ±SD
[10] = pre vs 24 h after 50 mg/kg ZD6126, individual rats
[11] = rats 1 and 2, rough estimate after subtracting value of tumor-free control

## COc1ccc(/C=C\c2cc(OC)c(OC)c(OC)c2)cc1OP(=O)(O)O [CA4P, combretastatin A-4 phosphate]
[1]; Day 0 (baseline), CA4P group n=4, P vs PBS 0.6720
  Serum Insulin: 3.695 ± 0.669 µg/L
[1]; Day 4, CA4P 100 mg/kg i.p. daily for three days, 24 h fast, P vs PBS 0.3699
  Serum Insulin: 3.060 ± 1.037 µg/L
[1]; Day 11, CA4P 100 mg/kg i.p. daily for three days, 24 h fast, P vs PBS 0.0350
  Serum Insulin: 2.495 ± 0.8722 µg/L
[2]; 24 h after 100 mg/kg CA4P, group mean
  % tumor necrosis: 43.7 ± 29.6%
[2]; [6]
  % tumor necrosis: 83% and 58% and 3% and 59% (2×)
[2]; 48 h after 100 mg/kg CA4P, group mean
  % tumor necrosis: 61.7 ± 27.4%
[2]; [7]
  % tumor necrosis: 77% and 30%
[3]; 24 h after 100 mg/kg CA4P bolus tail vein, n=6
  Prolactin total: 64.6 ± 19.1 ng/ml ± SD
[3]; 24 h after 100 mg/kg CA4P, n=6
  Growth Hormone tumor-derived: 29.1 ± 13.6 ng/ml ± SD
  Prolactin tumor-derived: 38.6 ± 19.1 ng/ml ± SD
  Growth Hormone total: 75.1 ± 13.6 ng/ml ± SD
[3]; [6]
  tumor GH post-: 15.8 and 29.1 and 48.4 and 19.2 and 42.4
  GH % decrease: 63.2% and 36.0% and 21.6% and 50.0% and 6.2%
[3]; 48 h after 100 mg/kg CA4P, n=2
  Growth Hormone tumor-derived: 20.8 ± 7.8 ng/ml ± SD
  Prolactin tumor-derived: 28.3 ± 20.2 ng/ml ± SD
  Growth Hormone total: 66.8 ± 7.8 ng/ml ± SD
  Prolactin total: 54.3 ± 20.2 ng/ml ± SD
[3]; [7]
  tumor GH post-: 15.3 and 26.3
  GH % decrease: 64.1% and 35.2%
[3]; baseline before CA4P, individual rats, tumor-derived growth hormone
  tumor GH pre-: 42.9 and 45.5 and 61.7 and 38.4 and 45.2 and 42.6 and 40.6
[3]; p<0.03, one-tailed t-test
  total and tumor-derived growth hormone after treatment (in words): statistically lower amount
[3]; p<0.04, one-tailed T-test
  total and tumor-derived prolactin after treatment (in words): statistically lower amount

## COc1cc2c(c(OC)c1OC)-c1ccc(OP(=O)(O)O)cc1[C@@H](NC(C)=O)CC2 [ZD6126]
[4]
  % necr. (tumor necrosis): 39% and 42% and little or no necrosis and 0%
[5]; [8]
  Growth Hormone post: 91 ± 7 and 102 ± 4 and 204 ± 14 and 171 ± 11
  Prolactin post: 90 ± 2 and 78 ± 3 and 129 ± 5 and 52 ± 1
[5]; [9]
  Growth Hormone pre: 214 ± 11 and 139 ± 8 and 193 ± 4 and 146 ± 4
  Prolactin pre: 211 ± 28 and 104 ± 3 and 134 ± 17 and 53 ± 3
[5]; [10]
  Growth Hormone Δ (percent reduction): 57 and 26 and −5 and −16
  Prolactin Δ (percent reduction): 57 and 24 and 4 and 1
[5]; [11]
  reduction in tumor-derived prolactin: ~65% and ~33%
  reduction of tumor-derived growth hormone: ~72% and ~40%

## CO[C@H]1C[C@@H]2CC[C@@H](C)[C@@](O)(O2)C(=O)C(=O)N2CCCC[C@H]2C(=O)O[C@H]([C@H](C)C[C@@H]2CC[C@@H](OCCO)[C@H](OC)C2)CC(=O)[C@H](C)/C=C(\C)[C@@H](O)[C@@H](OC)C(=O)[C@H](C)C[C@H](C)/C=C/C=C/C=C/1C [everolimus]
Carcinoid metastases
  response rate (Phase II trials): 13%

## COc1cc2ncnc(Nc3ccc(F)c(Cl)c3)c2cc1OCCCN1CCOCC1 [gefitinib]
Carcinoid metastases
  response rate (Phase II trials): 2%

## Cc1ccc(NC(=O)c2ccc(CN3CCN(C)CC3)cc2)cc1Nc1nccc(-c2cccnc2)n1 [imatinib]
Carcinoid metastases
  response rate (Phase II trials): 4%

## CNC(=O)c1cc(Oc2ccc(NC(=O)Nc3ccc(Cl)c(C(F)(F)F)c3)cc2)ccn1 [sorafenib]
Carcinoid metastases
  response rate (Phase II trials): 10%

## Clc1ccc(Nc2nnc(Cc3ccncc3)c3ccccc23)cc1 [valatinib]
Carcinoid metastases
  response rate (Phase II trials): 0%

## bevacizumab: anti-VEGF antibody
Carcinoid metastases
  response rate (Phase II trials): 18%
Neuroendocrine tumor
  neuroendocrine tumor patients achieving a meaningful reduction in urinary 5-HIAA: 19%
  patients achieving a reduction in plasma levels of chromogranin A: 6%
